Experimental data: PubChem BioAssay (NCI)
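GI50 is the concentration that inhibits growth by half. TGI: total growth inhibition.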

What was measured:
Experiment in all cases: DTP human tumour cell line panel, 384-well format
[1] = tested on: SF-295 CNS
[2] = tested on: UACC-257 melanoma
[3] = tested on: HCT-116 colon
[4] = tested on: K-562 leukemia
[5] = tested on: A549 NSCLC
[6] = tested on: TK-10 renal
[7] = tested on: SK-MEL-5 melanoma
[8] = tested on: OVCAR-8 ovarian
[9] = tested on: MDA-MB-435 melanoma
[10] = tested on: M14 melanoma
[11] = tested on: EKVX NSCLC
[12] = tested on: NCI-H322M lung
[13] = tested on: SNB-19 CNS
[14] = tested on: HT29 colon
[15] = tested on: NCI-H460 NSCLC
[16] = tested on: CAKI-1 renal
[17] = tested on: SF-268 CNS
[18] = tested on: IGROV1 ovarian
[19] = tested on: OVCAR-5 ovarian
[20] = tested on: SNB-75 CNS
[21] = tested on: MDA-MB-231 breast
[22] = tested on: SW-620 colon
[23] = tested on: A498 renal
[24] = tested on: SK-MEL-28 melanoma
[25] = tested on: HCT-15 colon
[26] = tested on: RPMI-8226 leukemia
[27] = tested on: MOLT-4 leukemia
[28] = tested on: OVCAR-3 ovarian
[29] = tested on: HL-60(TB) leukemia
[30] = tested on: DU-145 prostate
[31] = tested on: BT-549 breast
[32] = tested on: HOP-92 NSCLC
[33] = tested on: NCI-H23 lung
[34] = tested on: UO-31 renal
[35] = tested on: CCRF-CEM leukemia
[36] = tested on: MDA-MB-468 breast
[37] = tested on: NCI-H522 lung
[38] = tested on: HOP-62 NSCLC
[39] = tested on: MCF7 breast
[40] = tested on: UACC-62 melanoma
[41] = tested on: NCI/ADR-RES ovarian
[42] = tested on: COLO 205 colon
[43] = tested on: RXF 393 renal
[44] = tested on: LOX IMVI melanoma
[45] = tested on: ACHN renal
[46] = tested on: U251 glioblastoma
[47] = tested on: 786-0 renal
[48] = tested on: KM12 colon
[49] = tested on: HS 578T breast
[50] = tested on: OVCAR-4 ovarian
[51] = tested on: SF-539 CNS
[52] = tested on: T-47D breast
[53] = tested on: PC-3 prostate
[54] = tested on: SK-OV-3 ovarian
[55] = tested on: NCI-H226 lung
[56] = tested on: SN12C renal
[57] = tested on: HCC-2998 colon
[58] = tested on: SR leukemia

C[C@H](O)C(=O)N1CCC(CCn2c(Sc3cc4c(cc3Br)OCO4)nc3c(N)ncnc32)CC1
GI50 [1]: 433 nM
TGI [1]: 1700 nM
GI50 [2]: 4380 nM
TGI [2]: 31000 nM
GI50 [3]: 518 nM
TGI [3]: > 100000 nM
GI50 [4]: 271 nM
TGI [4]: 4700 nM
GI50 [5]: 318 nM
TGI [5]: > 100000 nM
GI50 [6]: 522 nM
TGI [6]: 23300 nM
GI50 [7]: 335 nM
TGI [7]: 19600 nM
GI50 [8]: 272 nM
TGI [8]: 707 nM
GI50 [9]: 1270 nM
TGI [9]: > 100000 nM
GI50 [10]: 361 nM
TGI [10]: 11800 nM
GI50 [11]: 649 nM
TGI [11]: 25100 nM
GI50 [12]: 593 nM
TGI [12]: 58100 nM
GI50 [13]: 694 nM
TGI [13]: > 100000 nM
GI50 [14]: 337 nM
TGI [14]: 20300 nM
GI50 [15]: 275 nM
TGI [15]: 745 nM
GI50 [16]: 657 nM
TGI [16]: 88800 nM
GI50 [17]: 174 nM
TGI [17]: 494 nM
GI50 [18]: 299 nM
TGI [18]: 1740 nM
GI50 [19]: 723 nM
TGI [19]: > 100000 nM
GI50 [20]: 1490 nM
TGI [20]: 7220 nM
GI50 [21]: 537 nM
TGI [21]: 7360 nM
GI50 [22]: 303 nM
TGI [22]: 2550 nM
GI50 [23]: 901 nM
TGI [23]: > 100000 nM
GI50 [24]: 589 nM
TGI [24]: 31200 nM
GI50 [25]: 757 nM
TGI [25]: 15600 nM
GI50 [26]: 472 nM
TGI [26]: 2530 nM
GI50 [27]: 122 nM
TGI [27]: 268 nM
GI50 [28]: 405 nM
TGI [28]: 3270 nM
GI50 [29]: 248 nM
TGI [29]: 523 nM
GI50 [30]: 420 nM
TGI [30]: 13800 nM
GI50 [31]: 410 nM
TGI [31]: 2820 nM
GI50 [32]: 624 nM
TGI [32]: 2370 nM
GI50 [33]: 214 nM
TGI [33]: 640 nM
GI50 [34]: 680 nM
TGI [34]: 58800 nM
GI50 [35]: 229 nM
TGI [35]: 783 nM
GI50 [36]: 294 nM
TGI [36]: 743 nM
GI50 [37]: 203 nM
TGI [37]: 410 nM
GI50 [38]: 582 nM
TGI [38]: 27800 nM
GI50 [39]: 286 nM
TGI [39]: 2810 nM
GI50 [40]: 534 nM
TGI [40]: 3070 nM
GI50 [41]: 9820 nM
TGI [41]: 35500 nM
GI50 [42]: 291 nM
TGI [42]: 1840 nM
GI50 [43]: 346 nM
TGI [43]: 26000 nM
GI50 [44]: 327 nM
TGI [44]: 1070 nM
GI50 [45]: 574 nM
TGI [45]: > 100000 nM
GI50 [46]: 395 nM
TGI [46]: 1450 nM
GI50 [47]: 607 nM
TGI [47]: > 100000 nM
GI50 [48]: 318 nM
TGI [48]: 10900 nM
GI50 [49]: 327 nM
TGI [49]: 2220 nM
GI50 [50]: 17300 nM
TGI [50]: > 100000 nM
GI50 [51]: 223 nM
TGI [51]: 442 nM
GI50 [52]: 344 nM
TGI [52]: 1500 nM
GI50 [53]: 655 nM
TGI [53]: 4010 nM
GI50 [54]: 827 nM
TGI [54]: 76600 nM
GI50 [55]: 568 nM
TGI [55]: 7660 nM
GI50 [56]: 333 nM
TGI [56]: 1840 nM
GI50 [57]: 127 nM
TGI [57]: 478 nM

Cc1ncc(CCCN(C)C)cc1Nc1ncc2c(n1)-c1ccc(C(F)(F)F)cc1NC(=S)C2
GI50 [1]: < 10 nM
TGI [1]: 17.1 nM
GI50 [4]: < 10 nM
TGI [4]: < 10 nM
GI50 [5]: < 10 nM
TGI [5]: 170 nM
GI50 [6]: 1730 nM
TGI [6]: 19700 nM
GI50 [7]: < 10 nM
TGI [7]: 12.7 nM
GI50 [8]: < 10 nM
TGI [8]: < 10 nM
GI50 [9]: < 10 nM
TGI [9]: < 10 nM
GI50 [11]: 11.6 nM
TGI [11]: 17800 nM
GI50 [12]: 4460 nM
TGI [12]: 19800 nM
GI50 [13]: < 10 nM
TGI [13]: 641 nM
GI50 [14]: < 10 nM
TGI [14]: < 10 nM
GI50 [15]: < 10 nM
TGI [15]: < 10 nM
GI50 [16]: 59.2 nM
TGI [16]: 12900 nM
GI50 [17]: < 10 nM
TGI [17]: 1990 nM
GI50 [18]: < 10 nM
TGI [18]: 16100 nM
GI50 [19]: < 10 nM
TGI [19]: 173 nM
GI50 [20]: < 10 nM
TGI [20]: 15.2 nM
GI50 [21]: < 10 nM
TGI [21]: 12200 nM
GI50 [22]: < 10 nM
TGI [22]: 14.8 nM
GI50 [23]: < 10 nM
TGI [23]: 12700 nM
GI50 [25]: < 10 nM
TGI [25]: 35.1 nM
GI50 [26]: < 10 nM
TGI [26]: < 10 nM
GI50 [27]: < 10 nM
TGI [27]: < 10 nM
GI50 [28]: < 10 nM
TGI [28]: < 10 nM
GI50 [29]: < 10 nM
TGI [29]: < 10 nM
GI50 [31]: < 10 nM
TGI [31]: 37.1 nM
GI50 [32]: < 10 nM
TGI [32]: 6280 nM
GI50 [33]: < 10 nM
TGI [33]: < 10 nM
GI50 [34]: 99 nM
TGI [34]: 19800 nM
GI50 [35]: < 10 nM
TGI [35]: < 10 nM
GI50 [36]: < 10 nM
TGI [36]: < 10 nM
GI50 [37]: < 10 nM
TGI [37]: < 10 nM
GI50 [38]: < 10 nM
TGI [38]: 37 nM
GI50 [39]: < 10 nM
TGI [39]: 2270 nM
GI50 [41]: 31.4 nM
TGI [41]: 179 nM
GI50 [45]: 44.4 nM
TGI [45]: 15300 nM
GI50 [46]: < 10 nM
TGI [46]: 11200 nM
GI50 [47]: < 10 nM
TGI [47]: 305 nM
GI50 [49]: < 10 nM
TGI [49]: 21.5 nM
GI50 [50]: < 10 nM
TGI [50]: 13200 nM
GI50 [51]: < 10 nM
TGI [51]: 117 nM
GI50 [58]: < 10 nM
TGI [58]: < 10 nM
GI50 [52]: 37.5 nM
TGI [52]: 15100 nM
GI50 [53]: < 10 nM
TGI [53]: 14300 nM
GI50 [54]: < 10 nM
TGI [54]: 1690 nM
GI50 [55]: 512 nM
TGI [55]: 6710 nM
GI50 [56]: 138 nM
TGI [56]: 3470 nM
GI50 [57]: < 10 nM
TGI [57]: 13.9 nM
